One experiment has as its target T1, Protein skinhead-1 (Caenorhabditis elegans, UniProt P34707).
T1 sequence (P34707 whole entry): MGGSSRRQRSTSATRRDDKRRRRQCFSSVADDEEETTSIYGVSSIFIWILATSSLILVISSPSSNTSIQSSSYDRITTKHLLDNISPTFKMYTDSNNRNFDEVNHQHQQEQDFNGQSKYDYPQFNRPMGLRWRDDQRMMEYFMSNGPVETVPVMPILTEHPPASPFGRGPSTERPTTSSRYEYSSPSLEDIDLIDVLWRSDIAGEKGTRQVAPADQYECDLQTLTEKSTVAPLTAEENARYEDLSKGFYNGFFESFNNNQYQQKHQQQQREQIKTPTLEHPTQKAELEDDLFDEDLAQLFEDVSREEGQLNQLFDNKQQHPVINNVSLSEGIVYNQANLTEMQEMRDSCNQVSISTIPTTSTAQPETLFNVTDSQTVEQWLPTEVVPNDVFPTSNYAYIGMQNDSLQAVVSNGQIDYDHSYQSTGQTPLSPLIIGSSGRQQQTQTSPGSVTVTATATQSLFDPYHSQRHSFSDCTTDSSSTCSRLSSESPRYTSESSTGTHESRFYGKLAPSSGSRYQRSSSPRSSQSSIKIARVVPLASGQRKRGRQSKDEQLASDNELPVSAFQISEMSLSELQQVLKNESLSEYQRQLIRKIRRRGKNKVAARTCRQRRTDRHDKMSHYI
It is filed as functional.

Experiment [1] concerns the target T2, Heat shock factor protein 1 (Mus musculus, UniProt P38532).
T2 sequence (P38532 whole entry): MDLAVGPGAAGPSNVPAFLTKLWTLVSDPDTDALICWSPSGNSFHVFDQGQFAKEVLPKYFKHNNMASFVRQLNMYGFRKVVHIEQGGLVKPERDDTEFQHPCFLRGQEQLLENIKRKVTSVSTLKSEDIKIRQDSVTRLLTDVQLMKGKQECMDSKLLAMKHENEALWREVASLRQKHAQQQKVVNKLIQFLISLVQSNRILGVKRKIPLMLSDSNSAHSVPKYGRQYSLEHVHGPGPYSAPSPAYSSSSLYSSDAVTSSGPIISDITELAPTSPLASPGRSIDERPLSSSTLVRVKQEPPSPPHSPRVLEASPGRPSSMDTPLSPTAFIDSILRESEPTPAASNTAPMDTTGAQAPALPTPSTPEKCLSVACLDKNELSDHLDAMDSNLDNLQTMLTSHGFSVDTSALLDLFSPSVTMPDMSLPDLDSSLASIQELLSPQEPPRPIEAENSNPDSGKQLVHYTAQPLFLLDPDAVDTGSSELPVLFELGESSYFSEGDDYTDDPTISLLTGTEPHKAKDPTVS
The experiment can be described thus: enhancement of HSF1-driven luciferase signal – cell-based, NIH3T3, luminescence, dose retest, confirmation (AID 435004).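 Also: stress induced by proteasome inhibitor MG132 added 30 min after compound; luciferase reporter driven by HSF1 response element in NIH3T3 cells; actives raise luminescence as potentiators of the MG132 stress response.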 It counts as functional.

Experiment [2] has as its target T3, Microphthalmia-associated transcription factor (Homo sapiens, UniProt O75030).
T3 sequence (O75030 whole entry): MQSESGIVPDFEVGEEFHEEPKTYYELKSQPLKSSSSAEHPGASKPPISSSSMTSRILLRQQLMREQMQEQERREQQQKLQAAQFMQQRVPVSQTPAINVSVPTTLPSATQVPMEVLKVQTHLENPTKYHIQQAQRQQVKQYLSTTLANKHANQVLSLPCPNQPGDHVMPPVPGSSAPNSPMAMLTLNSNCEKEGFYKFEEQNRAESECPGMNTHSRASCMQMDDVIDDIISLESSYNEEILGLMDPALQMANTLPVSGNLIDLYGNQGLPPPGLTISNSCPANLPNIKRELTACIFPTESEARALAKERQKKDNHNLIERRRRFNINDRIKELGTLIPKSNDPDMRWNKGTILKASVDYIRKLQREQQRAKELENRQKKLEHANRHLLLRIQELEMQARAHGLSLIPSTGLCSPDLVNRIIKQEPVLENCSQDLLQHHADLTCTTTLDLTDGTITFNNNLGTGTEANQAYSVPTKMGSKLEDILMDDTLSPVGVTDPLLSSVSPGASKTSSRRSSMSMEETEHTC
Briefly: reducers of TRPM1 reporter luminescence, concentration series – cell-based, SK-MEL-5, cherry-picked, set 3, MITF inhibitor project, dose response (AID 493073).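 Also: SK-MEL-5 melanoma cells with luciferase driven by the MITF target TRPM1 promoter.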 It counts as functional.

Experiment [3] concerns the target Induced myeloid leukemia cell differentiation protein Mcl-1 (Homo sapiens, UniProt Q07820). It counts as functional.
Experiment [4] can be described thus: viability of uninfected HEp-2 cells – cell-based, HTS, cytotoxicity control for RSV inhibitor project, dose response (AID 2410). It is filed as functional. The conditions noted are these: human respiratory syncytial virus.
Experiment [5] in a line: Trypanosoma cruzi growth suppression in host cells – NIH3T3 host cells, beta-gal luminescence, confirmation (AID 2044).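 Also: intracellular parasites grown in NIH/3T3 mouse fibroblasts as host cells; luminescent beta-galactosidase reporter signal from transgenic T. cruzi replicating inside host cells; inhibitors lower the luminescence signal.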 It counts as functional, cell-based.
Experiment [6] is described as follows: NIH3T3 cell viability loss – ATP luminescence, mouse fibroblasts, counter-screen, dose response (AID 2010).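 Also: cells exposed to compound for about 90 hours before reading.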 It is filed as functional, cell-based.
In experiment [7] the target is Luciferin 4-monooxygenase (Photinus pyralis, UniProt P08659). Briefly: inhibition of purified Photinus pyralis luciferase – biochemical, luminescence, dose response (AID 1891).
Experiment [8] can be described thus: Luminescence Cell-Based Dose Confirmation HTS to Identify Inhibitors of Platelet Dense Granule Release. [Related pubchem assays: 1663 (Primary HTS), 1678 (Summary of Project)]. It is filed as functional.
Experiment [9] has as its target T4, Calpain-2 catalytic subunit (Sus scrofa, UniProt P43367).
T4 sequence (P43367 whole entry): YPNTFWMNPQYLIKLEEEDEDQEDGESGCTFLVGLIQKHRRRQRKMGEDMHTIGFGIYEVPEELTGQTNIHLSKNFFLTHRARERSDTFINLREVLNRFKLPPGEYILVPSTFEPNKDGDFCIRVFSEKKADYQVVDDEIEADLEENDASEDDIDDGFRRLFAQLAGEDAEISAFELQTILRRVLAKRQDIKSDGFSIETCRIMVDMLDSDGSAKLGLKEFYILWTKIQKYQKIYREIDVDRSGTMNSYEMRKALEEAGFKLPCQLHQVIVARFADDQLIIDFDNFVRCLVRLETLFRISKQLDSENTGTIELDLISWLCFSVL
Briefly: m-calpain protease blockers, concentration series – biochemical, fluorogenic peptide substrate, dose response (AID 1420). It is filed as functional.

Experiment [10] addresses T5, Rac GTPase-activating protein 1 (Homo sapiens, UniProt Q9H0H5).
T5 sequence (Q9H0H5 whole entry): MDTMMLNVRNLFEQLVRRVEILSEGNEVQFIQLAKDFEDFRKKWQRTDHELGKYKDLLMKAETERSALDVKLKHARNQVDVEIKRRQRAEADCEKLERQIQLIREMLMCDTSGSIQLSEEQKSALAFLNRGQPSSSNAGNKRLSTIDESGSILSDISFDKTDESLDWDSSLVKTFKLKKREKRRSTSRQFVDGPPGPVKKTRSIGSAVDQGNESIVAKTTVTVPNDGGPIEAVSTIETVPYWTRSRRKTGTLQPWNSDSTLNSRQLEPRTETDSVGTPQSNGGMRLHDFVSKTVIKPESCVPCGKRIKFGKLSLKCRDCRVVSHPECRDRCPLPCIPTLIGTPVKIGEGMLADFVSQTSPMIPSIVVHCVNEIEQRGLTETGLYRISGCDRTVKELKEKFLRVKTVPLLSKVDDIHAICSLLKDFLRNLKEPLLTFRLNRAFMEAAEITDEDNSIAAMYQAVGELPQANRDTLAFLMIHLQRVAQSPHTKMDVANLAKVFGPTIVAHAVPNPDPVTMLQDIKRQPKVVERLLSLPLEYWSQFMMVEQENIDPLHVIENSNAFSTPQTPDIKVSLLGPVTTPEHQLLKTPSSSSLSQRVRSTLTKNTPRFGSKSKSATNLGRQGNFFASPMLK
The experiment can be described thus: blockers of MgcRacGAP-driven Rac1 GTP hydrolysis – biochemical, ADP Hunter fluorescence, primary and confirmatory, confirmation (AID 624330). It is filed as functional.

Active and inactive are the calls of the source. A value given as a limit tells only on which side of the number the result lay.

Sequence of Induced myeloid leukemia cell differentiation protein Mcl-1 (Q07820 whole entry): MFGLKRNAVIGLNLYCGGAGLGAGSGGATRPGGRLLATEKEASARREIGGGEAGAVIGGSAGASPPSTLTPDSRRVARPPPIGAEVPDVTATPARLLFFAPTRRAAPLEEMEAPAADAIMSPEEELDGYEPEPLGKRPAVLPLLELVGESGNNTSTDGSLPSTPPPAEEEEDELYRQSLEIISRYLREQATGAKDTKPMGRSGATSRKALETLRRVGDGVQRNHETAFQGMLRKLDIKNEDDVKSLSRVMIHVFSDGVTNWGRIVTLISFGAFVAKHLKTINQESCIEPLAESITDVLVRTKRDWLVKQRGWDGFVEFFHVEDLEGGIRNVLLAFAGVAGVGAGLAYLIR
Sequence of Luciferin 4-monooxygenase (P08659 whole entry): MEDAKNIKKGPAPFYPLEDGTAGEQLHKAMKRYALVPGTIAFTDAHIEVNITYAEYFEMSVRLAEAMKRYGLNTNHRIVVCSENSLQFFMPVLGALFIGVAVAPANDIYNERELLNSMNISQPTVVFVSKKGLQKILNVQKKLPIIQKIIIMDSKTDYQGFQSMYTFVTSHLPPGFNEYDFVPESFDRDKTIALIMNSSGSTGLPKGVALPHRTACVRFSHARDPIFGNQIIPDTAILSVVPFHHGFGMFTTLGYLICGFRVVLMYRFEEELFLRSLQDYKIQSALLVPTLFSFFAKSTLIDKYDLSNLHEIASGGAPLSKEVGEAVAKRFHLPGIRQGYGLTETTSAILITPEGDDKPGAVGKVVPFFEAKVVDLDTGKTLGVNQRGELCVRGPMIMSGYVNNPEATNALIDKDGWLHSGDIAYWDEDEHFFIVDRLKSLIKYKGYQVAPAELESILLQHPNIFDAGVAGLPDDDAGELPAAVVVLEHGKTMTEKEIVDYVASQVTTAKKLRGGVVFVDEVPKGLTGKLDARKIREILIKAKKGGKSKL

As for `CCOC(=O)c1c(N)sc2c1CCSC2`, at Protein skinhead-1, the IC50 was > 100 µM (inactive).
With `COc1cc2c(cc1OC)C(C)N(S(=O)(=O)c1cnc(Cl)c(Cl)c1)CC2` (configuration not stated), the EC50 in experiment [1] was 29.3 µM (active). In addition, the AC50 in [2] was 12.1 µM (active).
For `COc1ccc(-c2csc(Nc3ccccc3)n2)cc1`, the IC50 was 10.3 µM (not active) in experiment [3] and > 100 µM (inactive) on Protein skinhead-1.
`COc1ccc(NC(=O)Nc2ccc(N3CCOCC3)c3nonc23)c(OC)c1`: on Protein skinhead-1, the IC50 is > 100 µM (inactive).
The same measure, in the same setting: to `CCCNC(=O)COC(=O)c1[nH]c(C)c(C(=O)OCC)c1C` belongs > 100 µM (inactive).
As for `O=C(CSc1nc2ccccc2c(=O)n1-c1ccccc1)N1CCCc2ccccc21`, the CC50 in [4] was 39 µM (active).
For the compound `O=C(CN1C(=O)CCS(=O)(=O)c2ccccc21)NCc1ccccc1`, the IC50 at Protein skinhead-1 was > 100 µM (inactive).
The same measure, in the same setting: the value for `O=C(Nc1nc(-c2ccccc2)cs1)c1ccccc1F` was > 100 µM (inactive).
Consider `CCOc1ccc2nc(NC(=O)C3CCCN(S(=O)(=O)c4cccs4)C3)sc2c1` (configuration not stated), for which the CC50 in experiment [4] was 24.3 µM (active). Besides, the EC50 in [5] is 2.51 µM (active); in [6] it was > 60 µM (not active).
Turning to `C#Cc1cccc(-n2nnc(C(=O)OC)c2-c2ccccc2)c1`, the IC50 on Protein skinhead-1 was > 100 µM (inactive).
Take `Cc1cccc(-n2ncc3c(NC(C)C)ncnc32)c1`: in experiment [4], the cytotoxic concentration (CC50) is 34.4 µM (active).
With `O=C(CCCl)Nc1nc2c(s1)CCc1ccccc1-2`, the CC50 in [4] is 4.52 µM (active). Also, in [1], the EC50 is 22.2 µM (active).
For `C#CCCc1ccccc1/C=[N+](/C)[O-]`, in experiment [2], the AC50 is 9.4 µM (active).
Take `Brc1ccc(OCc2cn3ccccc3n2)cc1`: in experiment [1], the EC50 was > 260 µM (inactive). Also, the IC50 at Protein skinhead-1 was 41.9 µM (active).
Take `COC(=O)/C=C1\SC(N/N=C/c2ccc(Cl)cc2)=NC1=O`: the CC50 in [4] was 23.5 µM (active). Moreover, the results for the EC50 in [7] and in experiment [8] were 41.5 µM (active) and > 112 µM (not active), respectively.
For the compound `COc1cc(/C=N/NP(=S)(c2ccccc2)c2ccccc2)ccc1O`, the CC50 in experiment [4] is 30.3 µM (active). Besides, the results for the IC50 in [9] and in experiment [10] were 14.2 µM (not active) and 109 µM (active), respectively.
Regarding `C(=C1c2ccccc2-c2ccccc21)c1ccncc1`, at Protein skinhead-1, the IC50 was > 100 µM (inactive).

The values are drawn from ChEMBL document CHEMBL1201862, “PubChem BioAssay data set” (2004).
